Test results published in patent publication US11555042B2, “Macrocyclic compounds as TRK kinases inhibitors” (FOCHON BIOSCIENCES, LTD., priority 2018, dated 2023).
pIC50: −log10 of the molar value.

Columns and labels:
Assay type in all cases: cell-based
KM12 cells = KM12 cells proliferation inhibition (MTS), mechanism-based assay for TRK; details: Homo sapiens, KM12, 72 h
Source text: (§1) MTS testing kit was purchased from Promega (Madison, Wis., USA). The RPMI-1640, Fetal bovine serum and Penicillin-Streptomycin were purchased from Gibco (San Francisco, Calif., USA). Dimethyl sulfoxide (DMSO) and Puromycin were purchased from Sigma (St. Louis., Mo., USA). Mouse interleukin-3 (IL-3) was purchased from Cell signaling Technology (Boston, Mass., USA).
To investigate whether a compound is able to inhibit the activity of TRK in cells, a mechanism-based assay using KM12 cells was developed. In this assay, inhibition of TRK was detected by the inhibition of KM12 cells proliferation. KM12 cells were cultured in culture flasks to 40-80% confluence in RPMI-1640 plus 10% fetal bovine serum. Cells were collected and plated onto 96-well plates at 1000 cells/well. Plates were incubated at 37° C., with 5% CO2 for 4 h. Compounds were added to the plates, the final compound concentrations were […], 123.5, 41.2, 13.7, 4.6 and 1.5 nM. Place plates at 37° C., with 5% CO2 for KM12 cells 72 h. 20 μl MTS/100 μl medium mixture solution were added to each well and incubate the plates for exactly 2 h. Stop the reaction by adding 25 μl 10% SDS per well. Measure absorbance at 490 nm and 650 nm (reference wavelength). IC50 was calculated using GraphPad Prism 5.0.

TPM3-TRKA-G595R = molecular target: T1, TPM3-TRKA-G595R (Homo sapiens, UniProt P04629, G595R); test: Engineered Ba/F3 cell proliferation inhibition (MTS), TPM3-TRKA-G595R; details: 72 h
T1 construct: TPM3 (tropomyosin alpha-3, P06753) fusion partner; expressed in transfected cells; host or cells: Ba/F3; the other entry of the earlier key: TPM3 (P06753, Tropomyosin alpha-3 chain)
Source text: as §1
(§2) To investigate whether a compound is able to inhibit the activity of TRK fusion mutation in cells, a mechanism-based assay using engineered Ba/F3 cell lines stably overexpressing oncogenic rearrangement or gene mutation of TRK (TPM3-TRKA, TPM3-TRKA-G595R, AFAP1-TRKB, ETV6-TRKC and ETV6-TRKC-G623R) were developed. In this assay, inhibition of TRK fusion mutation was detected by the cell proliferation inhibition of engineered Ba/F3 cells. Engineered Ba/F3 cells were cultured in culture flasks to 40-80% confluence in RPMI-1640 supplemented with 10% fetal bovine serum, 2 ug/mL puromycin. Cells were collected and plated onto 96-well plates at desired cell density (Ba/F3-TPM3-TRKA: 3×10^4/mL, Ba/F3-TPM3-TRKA-G595R: 1×10^5/mL, Ba/F3-AFAP1-TRKB: 1×10^5/mL, Ba/F3-ETV6-TRKC: 3×10^4/mL, Ba/F3-ETV6-TRKC-G623R: 3×10^4/mL). Plates were incubated at 37° C., with 5% CO2 for 4 h. Compounds were then added to the plates with the final compound concentrations of 10000, 3333, 1111, […], 123, 41.2, 13.7, 4.6 and 1.5 nM. Plates were incubated at 37° C., with 5% CO2 for 72 h. A mixture of 20 μl MTS/100 μl medium were added to each well and the plates were incubated at 37° C., with 5% CO2 for exactly 2 h. The reaction was stopped by adding 25 μl of 10% SDS per well. The absorbance was measured at 490 nm and 650 nm (reference wavelength). IC50 was calculated using GraphPad Prism 5.0 software.

TPM3-TRKA = molecular target: T2, TPM3-TRKA (Homo sapiens, UniProt P04629); test: Engineered Ba/F3 cell proliferation inhibition (MTS), TPM3-TRKA; details: 72 h
T2 construct: TPM3 (tropomyosin alpha-3, P06753) fusion partner; expressed in transfected cells; host or cells: Ba/F3; the other entry of the earlier key: TPM3 (P06753, Tropomyosin alpha-3 chain)
Source text: as §1, §2

ETV6-TRKC-G623R = molecular target: T3, ETV6-TRKC-G623R (Homo sapiens, UniProt Q16288, G623R); test: Engineered Ba/F3 cell proliferation inhibition (MTS), ETV6-TRKC-G623R; details: 72 h
T3 construct: fused on or other part: P41212 (Transcription factor ETV6)
Source text: as §1, §2

T2 sequence (P04629 510-796 limits assumed): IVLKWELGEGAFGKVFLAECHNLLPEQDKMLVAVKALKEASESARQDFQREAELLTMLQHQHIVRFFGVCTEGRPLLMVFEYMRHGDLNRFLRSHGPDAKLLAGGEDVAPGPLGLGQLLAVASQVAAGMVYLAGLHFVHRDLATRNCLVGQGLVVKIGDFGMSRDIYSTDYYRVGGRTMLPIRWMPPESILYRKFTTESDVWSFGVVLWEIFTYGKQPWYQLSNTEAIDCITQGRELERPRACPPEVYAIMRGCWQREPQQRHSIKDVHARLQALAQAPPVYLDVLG
T3 sequence (Q16288 whole entry G623R, the tested form may be a part): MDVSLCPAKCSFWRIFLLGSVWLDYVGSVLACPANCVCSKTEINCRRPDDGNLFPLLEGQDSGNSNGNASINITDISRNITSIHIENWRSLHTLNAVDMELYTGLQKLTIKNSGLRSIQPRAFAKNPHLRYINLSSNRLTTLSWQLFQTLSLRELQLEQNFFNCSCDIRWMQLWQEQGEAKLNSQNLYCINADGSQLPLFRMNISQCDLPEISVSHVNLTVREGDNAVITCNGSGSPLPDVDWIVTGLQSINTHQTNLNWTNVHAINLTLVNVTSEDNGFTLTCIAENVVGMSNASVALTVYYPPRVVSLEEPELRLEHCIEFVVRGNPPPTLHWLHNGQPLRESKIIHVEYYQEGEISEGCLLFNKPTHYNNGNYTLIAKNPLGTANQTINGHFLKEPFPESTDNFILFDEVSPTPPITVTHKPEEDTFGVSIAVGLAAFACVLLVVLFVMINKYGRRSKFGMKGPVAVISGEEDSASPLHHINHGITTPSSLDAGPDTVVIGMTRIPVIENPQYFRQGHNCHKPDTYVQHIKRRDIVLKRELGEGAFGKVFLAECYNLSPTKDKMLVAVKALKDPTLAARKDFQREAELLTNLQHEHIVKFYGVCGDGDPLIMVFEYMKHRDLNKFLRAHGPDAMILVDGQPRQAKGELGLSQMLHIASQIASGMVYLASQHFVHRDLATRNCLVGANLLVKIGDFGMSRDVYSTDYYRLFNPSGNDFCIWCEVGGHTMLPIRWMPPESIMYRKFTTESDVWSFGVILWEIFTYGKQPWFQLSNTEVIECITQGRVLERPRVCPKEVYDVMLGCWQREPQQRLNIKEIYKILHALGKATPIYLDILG
T1 sequence (P04629 510-796 G595R limits assumed): as the sequence (P04629 510-796 limits assumed) above, with G86R counted along it

pIC50 (TPM3-TRKA-G595R) | pIC50 (TPM3-TRKA) | pIC50 (ETV6-TRKC-G623R) | Structure (SMILES) | pIC50 (KM12 cells)
7.52 | 9.00 | 7.59 | O=C1NC2(CC2)COc2ncc(F)cc2C2(CC2)Nc2ccn3ncc1c3n2 [Example 41, (3′E,4′E)-5′-fluorodispiro[cyclopropane-1,3′-5-oxa-2,8-diaza-1(5,3)-pyrazolo[1,5-a]pyrimidina-4(3,2)-pyridina-cyclononaphane-7′,1″-cyclopropan]-9′-one] | 9.00
 | 7.34 |  | CCN1c2ccn3ncc(c3n2)C(=O)NC[C@H](C)Oc2ncc(F)cc2C12CC2 [Example 62, (S,3′E,4′E)-2′-ethyl-5′-fluoro-6′-methylspiro [cyclopropane-1,3′-5-oxa-2,8-diaza-1(5,3)-pyrazolo[1,5-a]pyrimidina-4(3,2)-pyridinacyclononphan]-9′-one] | 7.89
9.00 |  | 9.00 | CN1c2ccn3ncc(c3n2)C(=O)NC2(CC2)CSc2ncc(F)cc2C12CC2 [Example 86, (3′E,4′E)-5′-fluoro-2′-methyldispiro-[cyclopropane-1,3′-5-thia-2,8-diaza-1(5,3)-pyrazolo[1,5-a]pyrimidina-4(3,2)-pyridina-cyclononaphane-7′,1″-cyclopropan]-9′-one] | 9.00
9.00 |  | 9.00 | O=C1NCCCc2ccc(F)cc2[C@@]23C[C@@H]2CCN3c2ccn3ncc1c3n2 [Example 71, (1^3E,1^4E,2^1R,2^5S)-3^5-fluoro-2^2,7-diaza-1(5,3)-pyrazolo[1,5-a]pyrimidina-2(2,1)-bicyclo[3.1.0]hexana-3(1,2)-benzenacyclo-octaphan-8-one] | 9.00
 | 7.77 |  | CCN1c2ccn3ncc(c3n2)C(=O)N[C@H](C)COc2ccc(F)cc2C12CC2 [Example 59, (R,3′E,4′E)-2′-ethyl-5′-fluoro-7′-methyl-spiro[cyclopropane-1,3′-5-oxa-2,8-diaza-1(5,3)-pyrazolo[1,5-a]pyrimidina-4(1,2)-benzenacyclononaphan]-9′-one] | 9.00
 | 7.64 |  | O=C1NCCCOc2ncc(F)cc2C2(CC2)Nc2ccn3ncc1c3n2 [Example 67, (3′E,4′E)-5′-fluorospiro[cyclopropane-1,3′-5-oxa-2,9-diaza-1(5,3)-pyrazolo[1,5-a]pyrimidina-4(3,2)-pyridinacyclodecaphan]-10′-one] | 8.00
 | 7.89 | 7.21 | CN1c2ccn3ncc(c3n2)C(=O)NCCOc2ccc(F)cc2C12CC2 [Example 54, (3′E,4′E)-5′-fluoro-2′-methylspiro-[cyclopropane-1,3′-5-oxa-2,8-diaza-1(5,3)-pyrazolo[1,5-a]pyrimidina-4(1,2)-benzenacyclononaphan]-9′-one] | 8.05
7.14 |  | 7.36 | C[C@@H]1CCc2ncc(F)cc2C2(CC2)N(C)c2ccn3ncc(c3n2)C(=O)N1 [Example 51, (R,3′E,4′E)-5′-fluoro-2′,7′-dimethylspiro-[cyclopropane-1,3′-2,8-diaza-1(5,3)-pyrazolo[1,5-a]pyrimidina-4(3,2)-pyridina-cyclononaphan]-9′-one] | 8.52
7.28 | 8.10 | 7.48 | CN1c2ccn3ncc(c3n2)C(=O)NCCCOc2ncc(F)cc2C12CC2 [Example 68, (3′E,4′E)-5′-fluoro-2′-methylspiro-[cyclopropane-1,3′-5-oxa-2,9-diaza-1(5,3)-pyrazolo[1,5-a]pyrimidina-4(3,2)-pyridina-cyclodecaphan]-10′-one] | 8.00
 | 8.22 | 7.17 | CCN1c2ccn3ncc(c3n2)C(=O)N[C@H](C)COc2ncc(F)cc2C12CC2 [Example 64, (R,3′E,4′E)-2′-ethyl-5′-fluoro-7′-methylspiro [cyclopropane-1,3′-5-oxa-2,8-diaza-1(5,3)-pyrazolo[1,5-a]pyrimidina-4(3,2)-pyridinacyclononaphan]-9′-one] | 8.70
 | 9.00 | 8.22 | C[C@H]1COc2ncc(F)cc2[C@@]23C[C@@H]2CCN3c2ccn3ncc(c3n2)C(=O)N1 [Example 28, (1^3E,1^4E,2^1R,2^5S,6S)-3^5-fluoro-6-methyl-4-oxa-2^2,7-diaza-1(5,3)-pyrazolo[1,5-a]pyrimidina-3(3,2)-pyridina-2(2,1)-bicyclo[3.1.0]hexanacyclooctaphan-8-one] | 9.00
7.44 |  | 7.39 | C[C@@H]1COc2ccc(F)cc2C2(CC2)N(C)c2ccn3ncc(c3n2)C(=O)N1 [Example 11, (R,3′E,4′E)-5′-fluoro-2′,7′-dimethylspiro[cyclopropane-1,3′-5-oxa-2,8-diaza-1(5,3)-pyrazolo[1,5-a]pyrimidina-4(1,2)-benzenacyclononaphan]-9′-one] | 9.00
 | 9.00 | 9.00 | C[C@@H]1CNC(=O)c2cnn3ccc(nc23)N2CC[C@H]3C[C@]32c2cc(F)ccc2O1 [Example 21, (1^3E,1^4E,2^1R,2^5S,5R)-3^5-fluoro-5-methyl-4-oxa-2^2,7-diaza-1(5,3)-pyrazolo[1,5-a]pyrimidina-2(2,1)-bicyclo[3.1.0]hexana-3(1,2)-benzenacyclooctaphan-8-one] | 9.00
7.59 |  | 7.64 | C[C@@H]1COc2ncc(F)cc2C2(CC2)N(C)c2ccc3ncc(n3n2)C(=O)N1 [Example 47, (7′R,E)-5′-fluoro-2′,7′-dimethylspiro-[cyclopropane-1,3′-5-oxa-2,8-diaza-1(6,3)-imidazo[1,2-b]pyridazina-4(3,2)-pyridina-cyclononaphan]-9′-one] | 8.70
 | 9.00 | 8.70 | C[C@H]1CCc2ncc(F)cc2[C@@]23C[C@@H]2CCN3c2ccn3ncc(c3n2)C(=O)N1 [Example 30, (1^3E,1^4E,2^1R,2^5S,6S)-35-fluoro-6-methyl-2^2,7-diaza-1(5,3)-pyrazolo[1,5-a]pyrimidina-3(3,2)-pyridina-2(2,1)-bicyclo[3.1.0]hexana-cyclooctaphan-8-one] | 9.00
8.40 | 9.00 | 8.30 | O=C1NCCOc2ncc(F)cc2[C@@]23C[C@@H]2CCN3c2ccn3ncc1c3n2 [Example 23, (1^3E,1^4E,2^1R,2^5S)-35-fluoro-4-oxa-2^2,7-diaza-1(5,3)-pyrazolo[1,5-a]pyrimidina-3(3,2)-pyridina-2(2,1)-bicyclo[3.1.0]hexanacyclooctaphan-8-one] | 9.00
8.52 |  | 9.00 | O=C1NC2(CCc3ncc(F)cc3[C@@]34C[C@@H]3CCN4c3ccc4ncc1n4n3)CC2 [Example 78, (1′R,5′S,E)-5′fluorospiro[cyclopropane-1,6′-2^2,7-diaza-1(6,3)-imidazo[1,2-b]pyridazina-3(3,2)-pyridina-2(2,1)-bicyclo [3.1.0]hexanacyclooctaphan]-8′-one] | 9.00
9.00 |  | 9.00 | O=C1NC2(CCc3ncc(F)cc3[C@@]34C[C@@H]3CCN4c3ccn4ncc1c4n3)CC2 [Example 77, (1′R,3′E,4′E,5′S)-5′-fluorospiro-[cyclopropane-1,6′-2^2,7-diaza-1(5,3)-pyrazolo[1,5-a]pyrimidina-3(3,2)-pyridina-2(2,1)-bicyclo[3.1.0]hexanacyclooctaphan]-8′-one] | 9.00
9.00 |  | 8.40 | CN1c2ccn3ncc(c3n2)C(=O)NC2(CC2)COc2ccc(F)cc2C12CC2 [Example 69, (3′E,4′E)-5′-fluoro-2′-methyldispiro-[cyclopropane-1,3′-5-oxa-2,8-diaza-1(5,3)-pyrazolo[1,5-a]pyrimidina-4(1,2)-benzenacyclononaphane-7′,1″-cyclopropan]-9′-one] | 9.00
